Series [1] in a line: Cytotoxicity, resazurin reduction assay. It counts as cell-based, murine. The settings on record: mouse. The procedure: (§1) RAW 264.7 murine macrophages and Macaca mulatta kidney cells (LLC-MK2) were cultured in 75-cm^2 flasks with 10-mL Dulbecco’s Modified Eagle’s Medium (DMEM) supplemented with 10% fetal bovine serum and 1% penicillin/streptomycin (DMEM-10) medium. Culture conditions were 37°C, 5% CO2, and 95% relative humidity. RAW 264.7 cells were rinsed with PBS, detached with a cell scraper, and passaged every 96 h. LL-MCK2 were subcultured weekly, at 1:4 ratio, via trypsinization.
(§2) The toxicity of the studied AMPs over LLC-MK2 and RAW 264 cells was determined via a resazurin (RZN) reduction assay ([42]). Briefly, 2 × 10^4 cells/well were seeded in DMEM-10 in 96-well plates. Twenty-four hours later, culture medium was removed, and 10 twofold serial dilutions (100.0–0.195 µM) of each AMP in 200-µL volume were placed in duplicate wells. The plate was placed on the incubator in the dark at 37°C and 5% CO2. Ten microliters of 3-mM RZN sodium salt in PBS per well was added, and the plate was incubated for 24 h. Finally, the fluorescence was measured (530- to 560-nm excitation and 590-nm emission wavelengths). Three independent assays were performed for each peptide.

Another series concerns P. falciparum NF54. It counts as cell-based, Plasmodium falciparum. The settings on record: NF54, 72 h. The procedure:
(§3) P. falciparum was cultured in human O + erythrocytes in Roswell Park Memorial Institute medium 1640, supplemented with 25-mM HEPES buffer, 10-mM glucose, 2-mM glutamine, and O + human plasma. Parasites were cultured under low-oxygen atmosphere (5% O2, 5% CO2, and 90% N2) ([34]) and maintained in fresh human erythrocytes suspended at 4% hematocrit in complete medium at 37°C. Stock cultures were subpassaged every 3–4 days by transfer of infected red cells to a flask containing complete medium and uninfected erythrocytes.
(§4) In vitro sensitivity to peptides was tested using a previously described SYBR green I fluorescence-based method ([39], [40]). Assays were set up in 96-well plates with twofold peptide dilutions in 150-μL total volume and 1.5% (vol/vol) final red blood cell concentration. Stock solutions of each peptide were prepared in DMSO. Experiments were started at an initial parasitemia of 0.5% (80% rings) synchronous parasite-infected red blood cells. Plates were incubated for 72 h at 37°C in an atmosphere of 5% CO2, 5% O2, and 90% N2. The SYBR green I dye-lysis mixture (l:100) was added to the parasites in black plates that were incubated at room temperature for an hour in the dark. The plates were then read using a fluorescence plate reader at excitation and emission wavelengths of 480 and 535 nm, respectively. Experiments were performed in duplicate wells. Three independent assays were performed for each peptide.

Series [2] has as its system P. falciparum TM90C2B (C2B). Type of series: cell-based, Plasmodium falciparum. Conditions: TM90C2B (C2B, 72 h). The procedure: as §3, §4
The subject of series [3] is Leishmania mexicana strain M379 promastigotes. It counts as cell-based. The settings on record: for SI L. mexicana: RAW 264.7 CC50/parasite IC50; for pIC50: promastigotes 1 × 10^6/well, SDM without FBS, 48 h at 25°C, MTT, three independent assays in triplicate, read-out: IC50 L. mexicana, with 95% confidence interval. As to the method: L. mexicana promastigote stock cultures were maintained in USHMARU biphasic medium [blood agar slant overlayed with 3 mL of Schneider’s Drosophila medium (SDM), containing 10% fetal bovine serum (FBS)] at 25°C. Promastigotes were collected by centrifugation and washed with PBS, and culture medium was replaced every 2 days. Every 4 days, the parasites were transferred to a new tube and to a 25-cm^2 tissue culture flask containing 10 mL of monophasic medium (SDM + 10% FBS + 1% penicillin/streptomycin). If present, rosettes were disrupted by passing the culture through 10-mL syringes with 27G needles.
Parasite viability was measured colorimetrically via 3-(4,5-dimethylthiazol-2-yl)-2,5-diphenyltetrazole bromide tetrazolium salt (MTT) reduction. Promastigotes were placed in 96-well conical-bottom plates in SDM + 1% penicillin/streptomycin without FBS, at a density of 1 × 10^6/well. Untreated parasites (growth control), 1-µM amphotericin B diluted in DMSO (positive control), 0.25% DMSO (negative control), and each of the peptides at a final concentration of 0.1, 0.5, 1.0, 5.0, and 10.0 µM were included in triplicate wells. Plates were incubated at 25°C for 48 h. Subsequently, 20-µL 10% MTT was added per well. Plates were incubated for 2 h in the dark at the same temperature and centrifuged at 4,000 rpm for 10 min, and the supernatant was removed. Formazan crystals were diluted with 50-µL DMSO, and absorbances (A570–630) were read ([37], [38]). Three independent assays were performed for each peptide.

Series [4] in a line: Cytotoxicity, resazurin reduction assay. Conditions: Macaca mulatta, LLC-MK2 cells (Macaca mulatta kidney cells), 100.0–0.195 µM, three independent assays in duplicate wells, read-out: IC50 (CC50) Llc-mk2, with 95% confidence interval. Type of series: cell-based. As to the method: as §1, §2
(Resazurin is reduced to fluorescent resorufin, in cell work by metabolically active cells.)

Series [5] deals with T. cruzi trypomastigotes (Tulahuen, Tula β-gal). Type of series: cell-based, Trypanosoma cruzi. The settings on record: trypomastigotes (Tulahuen, Tula β-gal, 4 h). As to the method:
T. cruzi trypomastigote culture was performed as reported previously ([35], [36]). LLC-MK2 cell monolayers were infected with 5 × 10^5 trypomastigotes in 10-mL DMEM supplemented with 2% FBS and 1% penicillin/streptomycin (DMEM-2), for 48 h at 37°C, 5% CO2 and 98% relative humidity. Parasites were subsequently removed by rinsing with PBS, and 10-mL fresh DMEM-2 was added. Five days post-infection, trypomastigotes were harvested from the culture for the trypanocidal activity assays.
Wells containing parasites not exposed to peptides and treated with 0.1% Triton served as 100% lysis reference. Plates were incubated in the dark at 37°C and 5% CO2 for 4 h, and absorbance was read at 590 nm. Experiments were performed in duplicate wells. Three independent assays were performed for each peptide.

Series [6] deals with intracellular T. cruzi amastigotes (Tula β-gal) in LLC-MK2 cells. Conditions: read-out: IC50 T. cruzi amastigotes, with 95% confidence interval, 96 h, CPRG read-out, three independent assays. As to the method: Leishmania mexicana strain M379, P. falciparum reference clones NF54 (chloroquine-sensitive, isolated from a patient at an airport in the Netherlands) and TM90C2B (C2B) (chloroquine, mefloquine, and atovaquone resistant, from Thailand) and T. cruzi, β-galactosidase-expressing, Tulahuen strain parasites (C4 clone; +lacZ, henceforth abbreviated as Tula β-gal) ([33]) were employed in the study.
LLC-MK2 cells, 2 × 10^4/well, were seeded and allowed to attach overnight to 96-well plates. he medium was removed and cells were infected with 1 × 10^5 parasites in DMEM-2 for 24 h. Cell monolayers were washed four times with PBS, and serial dilutions of AMPs (100.0- to 0.195-µM range) in DMEM-2 without phenol red were added to duplicate wells. Wells containing infected cells not exposed to peptides served as parasite growth reference. The infection was allowed to proceed for 96 h. Subsequently, lysis solution was added to each well to a final concentration of 100-µM CPRG and 0.1% Triton and incubated for 2 h. Absorbance was measured at 590 nm ([41]). Three independent assays were performed for each peptide.
Half-maximal inhibitory concentration (IC50) and half-maximal cytotoxic concentration (CC50) with 95% confidence intervals in GraphPad Prism software (v.9.2.0., non-linear regression with curve fitting [model: log (inhibitor) vs response (three parameters)]. The selectivity index (SI) was determined by dividing the CC50 value of RAW 264.7 cells by the IC50 of the parasites.

In series [7] the test system is Candida albicans ATCC 10231. Type of series: cell-based. The settings on record: ATCC 10231, 16 h. The procedure: (§5) The minimum inhibitory concentration (MIC) of CZS-4 over Escherichia coli American Type Culture Collection (ATCC) 25922, Staphylococcus aureus ATCC 29213, and Candida albicans ATCC 10231 was determined, as previously described ([28], [30], [31]). In brief, overnight cultures of each microorganism were subcultured in Muller-Hinton Broth (MHB) until reaching 1 × 10^6 CFU/mL for bacteria and 1 × 10^5 CFU/mL for yeast. Peptide serial dilutions in dimethylsulfoxide (DMSO), ranging from 0.4 to 209.4 µM were prepared, and 2 µL of each peptide dilution was added to 198-µL diluted bacterial or yeast culture in a 96-well sterile plate (with five replicates). Sterile MHB and microbial culture with DMSO were negative controls. Plates were incubated for 16 h at 37°C. Microorganism growth was measured at 600 nm.

Series [8] concerns Escherichia coli ATCC 25922. Type of series: cell-based. Conditions: ATCC 25922, 16 h. As to the method: as §5
The subject of series [9] is Staphylococcus aureus ATCC 29213. Type of series: cell-based. The settings on record: ATCC 29213, 16 h. As to the method:
as §5

The subject of a further series is red blood cell. It counts as cell-based. The procedure: Hemolytic activity was determined using 200 µL of 4% red blood cell solution incubated with 200 µL of serial dilutions peptide (0.4–209.4 µM) in phosphate-buffered saline (PBS) 1× (five replicates). Negative controls contained PBS instead of peptide; positive controls contained 2% vol/vol Triton X-100 to yield complete hemolysis. Assays were incubated at 37°C for 2 h, and samples were centrifuged at […] for 5 min. Two-hundred microliters of supernatant was transferred to a 96-well plate and absorbance was measured at 550 nm.

[10] abbreviates: RAW 264.7 macrophages, resazurin reduction, 24 h, 100.0–0.195 µM, three independent assays in duplicate wells, read-out: IC50 (CC50) Raw 264.7, with 95% confidence interval.

pIC50: −log10 of the molar value. Read-outs that look alike come from different tables or passages of the source. No end group written: not given here.

The CC50 is the concentration at which the toxic effect on the cells reaches its halfway point. The pIC50 is the negative decadic logarithm of the IC50, by convention in mol/L. Substance “ASWKVFLKNIGKAAGKAVLNSVTDMVNQ-NH2 [DRS-SP2]” returned a CC50 at 24 h in series [1] of 3.14 µM. For the same substance, the negative logarithm of the IC50 (pIC50) was 4.92 with P. falciparum NF54, 4.81 in series [2] and 6.21 in series [3]. The “SI L. mexicana” value in series [3] came to 5.15.
In the case of GFLDIVKGVGKVALGAVSKLF-NH2 [CZS-1], the 50% cytotoxic concentration (CC50) at 24 h in [4] worked out at 3.17 µM; in series [1] (setting [10]), 2.38 µM. The negative logarithm of the IC50 (pIC50) in series [5] was 5.54; in series [6], 4.78; with P. falciparum NF54, 4.51; in series [2], 4.78; in series [3], 6.27. Besides, the “SI L. mexicana” value in series [3] is reported as 4.41.
As to GFLDTLKNIGKTVGRIALNVLT-NH2 [PTS-1], the values for the 50% cytotoxic concentration (CC50) at 24 h in series [4] and in series [1] (setting [10]) were 80.1 µM and 2.52 µM, respectively. The negative-log IC50 (pIC50) in series [5] was 5.85; in [6], 4.52; in the series with P. falciparum NF54, 4.28; in series [2], 4.60; in series [3], 7.00. The “SI L. mexicana” value in series [3] is listed as 25.20.
The MIC is the lowest concentration that inhibits growth of the organism. As for GFLDVIKHVGKAALSVVSHLINE-NH2 [CZS-4], the MIC in series [7] is recorded as 52.36 µM; in series [8], 13.09 µM; in series [9], 26.18 µM. Also, the Hemolysis is given as 13% in the series on red blood cell (128 µM) and “less than 9.1%” with red blood cell (2 h). Further, the “Hemolysis (%)” value was found to be 1.2% in the series on red blood cell (2 h, 13.09 µM); 9.1% in the series with red blood cell (2 h, 26.18 µM); 28.5% in the series with red blood cell (2 h, 104.73 µM); 36.3% in the series on red blood cell (2 h, 209.46 µM). The CC50 at 24 h in series [4] worked out at 70.7 µM; in series [1] (setting [10]) it was 48 µM. The pIC50 in series [5] was 5.81; in series [6], 4.51; with P. falciparum NF54, 4.86; in [2], 5.31; in series [3], 7.05. Also, the “SI L. mexicana” value in series [3] is 532.89.
With GFLDVLKGVGKAALGAVTHLINQ-NH2 [CZS-16], the CC50 at 24 h is 5.59 µM in series [4] and 4.4 µM in series [1] (setting [10]). Moreover, the pIC50 in [5] was 4.73; in [6], 4.42; in the series on P. falciparum NF54 it was 4.43; in [2], 4.46.

The record behind these values is article PMC11302733, “Bioactivity of synthetic peptides from Ecuadorian frog skin secretions against Leishmania mexicana, Plasmodium falciparum, and Trypanosoma cruzi” (Microbiology Spectrum, 2024).
